Patent publication US20200131495A1, “PROTEINS DERIVED FROM CLPB AND USES THEREOF” (priority 2017, published 2020)

What was measured:
[1] = target: MC1R (Mus musculus, UniProt Q01727); conditions: Ericson et al., 2015; cited from earlier work
[2] = target: MC3R (Mus musculus, UniProt P33033); conditions: Ericson et al., 2015; cited from earlier work
[3] = target: MCSR (Mus musculus, UniProt P41149); conditions: Ericson et al., 2015; cited from earlier work
[4] = target: MC4R (Mus musculus, UniProt P56450); conditions: Ericson et al., 2015; cited from earlier work
[5] = system: intestinal tissues from rats (colons and ileums); assay: PYY secretion experiment in rat colons and ileums; format: cell-based; conditions: 10 nM, 20 min, control PBS, FIG. 6
Description: Colons and ileums were removed from male rats (Janvier Labs, Genest-Saint-Isle, France). They were washed with ice-cold PBS, then with ice-cold L-15 (Leibowitz) medium (PAA, Yeovil, UK). Then they were digested with 0.4 mg/mL collagenase XI (Sigma, Poole, UK) in High-Glucose DMEM (+1% L-Glutamine+1% Penicillin+1% Streptomycin+1% and non-essential amino acids) at 37° C. during 10 min. Cells suspensions were centrifuged (10 min at 400 g) and the pellets were resuspended in High-Glucose DMEM (the same that previously but with 10% Fetal Bovine Serum (FBS). Cell suspensions were filtered through a nylon mesh (pore size 100 Jpm) (Merck Millipore, Mass., USA) and plated onto 24 well, 1% Matrigel-coated plates (Corning, N.Y., US). The plates were incubated overnight at 37° C. in an atmosphere of […] and 5% CO2.
After 24 hours of culture, cells were incubated for 20 min in a water bath with secretion buffer (4 mM KCl, 138 mM NaCl, 1.2 mM NaHCO3, 1.2 mM NaH2PO4, 2.6 mM CaCl2), 1.2 mM MgCl2 and 10 mM HEPES) adjusted at pH 7.4) and full-length ClpB or the ˜25 kDa fragment at a concentration of 10 nM. […]
After incubation, the cells were treated with lysis buffer (50 mmol/L Tris-HCl, 150 mmol/L NaCl, 1% IGEPAL CA-630, 0.5% deoxycholic acid+cocktail of protease inhibitor tablets complete without EDTA) to extract intracellular peptides. […] Lysates were stored at −80° C. if not analyzed immediately. […]

[6] = Food intake of mice in BioDAQ cages after i.p. or oral administration; format: in vivo; conditions: for food intake in mice, oral administration: 60 pmol in 200 μL, FIG. 8
Description: Male C57/B16 mice were placed in the BioDAQ mouse cages (Research Diets, Inc., New Brunswick, N.J.) alone to measure the food intake. Each mouse was administered either physiological serum (n=6), full-length ClpB, or fragment of ˜25 kDa.
Two modes of administration were tested: intraperitoneal (i.p.) injection at a concentration of 2 pmol in a volume of 200 μL (n=8), and oral administration at a concentration of 60 pmol in a volume of 200 μL (n=10).

[7] = system: anti-α-MSH antibody; assay: Western blot revealed with anti-α-MSH antibody; format: binding, rabbit; conditions: FIG. 3 (trypsinised ClpB); FIG. 4 (colic mucosa, hypothalamus, plasma of mice and rats)
Description: First the fragmentation was performed on different conditions: ClpB diluted at 1/10 (from the stock at 5 mg/mL) and ClpB 1/10 with 0.0025% trypsin. Those different conditions were placed during 20 minutes at 37° C. After incubation, the fragmentation was immediately stopped by placing tubes on ice and western blot was performed.
After fragmentation, Leamli solution without J-mercaptoethanol was added into tubes to perform western on 20% acrylamide SDS gel in Tris-Glycine buffer (BioRad, Hercules, USA) and transferred to a nitrocellulose membrane (GE Healthcare, Orsay, France). Then, the membrane was blocked for at least 1 h at room temperature with 5% (w/v) non-fat dry milk in TBS (10 mmol/L Tris, pH 8; 150 mmol/L NaCl) plus 0.05% (w/v) Tween 20. After blocking, the […] The membrane was incubated overnight at 4° C. with rabbit polyclonal anti-α-MSH antibodies (1:1000, Phoenix Pharmaceuticals). After three washes in a blocking solution of 5% (w/v) non-fat dry milk in TBS/0.05% Tween 20, membranes were incubated for 1 h with peroxidase-conjugated anti rabbit IgG (1:1000, SantaCruz Biotechnology). […]
Tissues were incubated with extracted buffer (PBS+protease inhibitor (1%)). The volume added depends of sample quantity. […] The supernatant was stored at −80° C. if not analysed immediately. […]

MC3R, sequence (P33033 whole entry): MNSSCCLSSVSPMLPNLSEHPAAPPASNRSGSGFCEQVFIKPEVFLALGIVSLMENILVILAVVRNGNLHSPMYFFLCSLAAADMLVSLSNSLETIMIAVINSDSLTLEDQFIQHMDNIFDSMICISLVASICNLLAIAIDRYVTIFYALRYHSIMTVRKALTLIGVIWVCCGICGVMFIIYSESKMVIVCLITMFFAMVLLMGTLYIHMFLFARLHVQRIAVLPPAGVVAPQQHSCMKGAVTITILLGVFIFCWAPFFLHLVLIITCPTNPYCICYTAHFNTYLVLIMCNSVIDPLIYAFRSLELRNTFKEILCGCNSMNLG
MC1R, sequence (Q01727 whole entry): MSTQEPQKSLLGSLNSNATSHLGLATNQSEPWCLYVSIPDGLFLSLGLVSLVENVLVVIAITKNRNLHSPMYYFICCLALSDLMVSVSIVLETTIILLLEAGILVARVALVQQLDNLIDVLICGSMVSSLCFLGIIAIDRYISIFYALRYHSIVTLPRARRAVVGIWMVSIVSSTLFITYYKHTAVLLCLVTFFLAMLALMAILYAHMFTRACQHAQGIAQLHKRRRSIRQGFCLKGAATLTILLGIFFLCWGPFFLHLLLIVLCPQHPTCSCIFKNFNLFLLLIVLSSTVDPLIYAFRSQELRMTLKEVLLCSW
MCSR, sequence (P41149 whole entry): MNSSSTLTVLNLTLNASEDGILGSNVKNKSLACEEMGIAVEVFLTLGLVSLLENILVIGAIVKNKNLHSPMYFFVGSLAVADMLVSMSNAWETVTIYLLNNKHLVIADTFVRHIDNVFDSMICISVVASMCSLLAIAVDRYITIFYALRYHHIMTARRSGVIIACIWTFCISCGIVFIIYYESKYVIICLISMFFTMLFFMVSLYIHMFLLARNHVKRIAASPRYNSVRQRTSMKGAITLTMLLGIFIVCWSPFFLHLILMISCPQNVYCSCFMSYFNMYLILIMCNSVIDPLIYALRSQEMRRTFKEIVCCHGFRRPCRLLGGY
MC4R, sequence (P56450 whole entry): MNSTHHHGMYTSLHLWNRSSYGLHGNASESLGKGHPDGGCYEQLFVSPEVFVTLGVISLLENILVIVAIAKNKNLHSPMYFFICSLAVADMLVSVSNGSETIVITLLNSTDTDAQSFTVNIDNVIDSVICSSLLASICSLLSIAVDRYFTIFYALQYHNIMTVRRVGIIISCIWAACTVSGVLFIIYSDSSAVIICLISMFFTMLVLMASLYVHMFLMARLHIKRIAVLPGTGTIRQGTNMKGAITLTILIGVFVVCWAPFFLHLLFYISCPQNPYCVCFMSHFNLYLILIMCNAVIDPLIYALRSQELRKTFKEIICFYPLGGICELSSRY

Substance | MC1R agonist activity [1] | activity on MC3R [2] | activity on MCSR [3] | activity on MC4R [4] | PYY secretion compared to the control [5] | duration of the decrease of food intake ([6]; i.p. 2 pmol and oral 60 pmol in 200 μL, FIGS. 7 and 8) | food intake in mice ([6]; i.p. 2 pmol and oral 60 pmol in 200 μL, FIGS. 7 and 8, compared with full-length ClpB protein) | food intake in mice, oral administration [6] | recognition by anti-α-MSH antibodies (Western blot) [7]
AEIAEVLARWTGIPV (ClpB fragment) [modified short ClpB fragment studied by Ericson et al] | full micromolar MC1R agonist | partial activities | partial activities | not on MC4R |  |  |  |  | 
fragment of ˜25 kDa: sequence of ClpB from amino acid 537 to amino acid 756 (SEQ ID NO: 22), produced by trypsinisation of ClpB |  |  |  |  | increase PYY secretion | at least 90 min | decreases food intake in mice at least as much as the full-length ClpB protein | decreases food intake | revealed with polyclonal anti-α-MSH
full-length ClpB: chaperone protein ClpB (caseinolytic protease B), ˜96 kDa, 857 amino acids, from E. Coli K12 |  |  |  |  | increase PYY secretion |  |  | no such effect | 
